Consider 36 sequences from patent US9387221B2, “SDF-1 binding nucleic acids and the use thereof in cancer treatment” (NOXXON Pharma AG, priority 2010, dated 2016).

Entries after “also recorded” stand apart in the source; their conditions may differ.

In the first data set the test system is biotinylated human D-SDF-1. As to the kind of experiment: Competitive pull-down binding assay. The following applies: aptamer level; reference 192-A10-001. How it is done:
In order to compare different D-SDF-1 binding aptamers, a competitive ranking assay was performed. For this purpose the most affine aptamer available was radioactively labeled (see above) and served as reference. […] An excess of de- and renatured non-labeled D-RNA aptamer variants was added to different concentrations (e.g. 2, 10, and 50 nM) with the labeled reference aptamer to parallel binding reactions. The aptamers to be tested competed with the reference aptamer for target binding, thus decreasing the binding signal in dependence of their binding characteristics.
In the case of “GCUGUAAAAGUAACAUGUCAAUGAAAGGUAACUACAGC (aptamer; Made as D-RNA aptamer and L-RNA Spiegelmer, tested form not given here, further chemistry not given here) [192-C9]”, the “binding affinity in competitive pull-down binding assay vs. 192-A10-001” value is on record as “Weaker binding affinity”.
For the sequence “GCUGUGAAAGUAACAUGUCAAUGAAAGGUAGCCGCAGC (aptamer; Made as D-RNA aptamer and L-RNA Spiegelmer, tested form not given here, further chemistry not given here) [192-H9]”, the “binding affinity in competitive pull-down binding assay vs. 192-A10-001” value is listed as “much weaker binding affinity”.
With “GCAGUGAAAGUAACAUGUCAAUGAAAGGUAACCACAGC (aptamer; Made as D-RNA aptamer and L-RNA Spiegelmer, tested form not given here, further chemistry not given here) [192-D11]”, the “binding affinity in competitive pull-down binding assay vs. 192-A10-001” value was “Weaker binding affinity”.
“GCUAUGAAAGUAACAUGUCAAUGAAAGGUAACCAUAGC (aptamer; Made as D-RNA aptamer and L-RNA Spiegelmer, tested form not given here, further chemistry not given here) [192-H11]”: the “binding affinity in competitive pull-down binding assay vs. 192-A10-001” value is “Weaker binding affinity”.
As to “GCUGUGAAAGCAACAUGUCAAUGAAAGGUAGCCACAGC (aptamer; Made as D-RNA aptamer and L-RNA Spiegelmer, tested form not given here, further chemistry not given here) [192-E9]”, the “binding affinity in competitive pull-down binding assay vs. 192-A10-001” value is listed as “much weaker binding affinity”.
As to “GUGUUGCGGAGGUUAGGGCUAGAAGUCGGUCAGCAGCAC (chemistry not given here) [197-H1]”, the “binding affinity in competitive pull-down binding assay vs. 192-A10-001” value is recorded as “weaker binding affinities”.
Still for that read-out and setting: under “GCUGUGAAAGUAACACGUCAAUGAAAGGUAACCACAGC (aptamer; Made as D-RNA aptamer and L-RNA Spiegelmer, tested form not given here, further chemistry not given here) [192-B11]” stands “equal binding affinities; also recorded: equal binding affinity”.
On the same count and under the same terms, under “GUGUUGCAGGGGUUAGGGCUUGAAGUCGGCCUGCAGCAC (chemistry not given here) [197-E3]” stands “weaker binding affinities”; under “AGCGUGAAGGGGUUAGGGCUCGAAGUCGGCUGACACGCU (Made as D-RNA aptamer and L-RNA Spiegelmer, tested form not given here, further chemistry not given here) [191-A5]”, “Much weaker binding affinity”.
As to “GUGCUGCGGGGGUUAGGGCUCGAAGUCGGCCCGCAGCAC (chemistry not given here) [197-H3]”, the “binding affinity in competitive pull-down binding assay vs. 192-A10-001” value is given as “weaker binding affinities”.
Same read-out and setting: under “GCUGUAAAAGUAACAAGUCAAUGAAAGGUAACUACAGC (aptamer; Made as D-RNA aptamer and L-RNA Spiegelmer, tested form not given here, further chemistry not given here) [192-E10]” stands “Weaker binding affinity; also recorded: reduced binding affinity”; under “GUGCUGCGGGGGUUAGGGCUCAAAGUCGGCCUGCAGCAC (chemistry not given here) [197-H2]”, “Much weaker binding affinity”; under “GCUGUGAAAGUAACAAGUCAAUGAAAGGUAACCACAGC (aptamer; Made as D-RNA aptamer and L-RNA Spiegelmer, tested form not given here, further chemistry not given here) [192-C10]”, “equal binding affinities; also recorded: equal binding affinity”.
Consider “AGCGUGAAAGUAACACGUAAAAUGAAAGGUAACCACGCU (Made as D-RNA aptamer and L-RNA Spiegelmer, tested form not given here, further chemistry not given here) [191-A6]”, for which the “binding affinity in competitive pull-down binding assay vs. 192-A10-001” value was “Weaker binding affinity”.

The data set is the same for the next values; noted with them: compared with 190-A3-001.
As to “UGAGAUAGGGGUUAGGGCUUAAAGUCGGCUGAUUCUCA (aptamer; Made as D-RNA aptamer and L-RNA Spiegelmer, tested form not given here, further chemistry not given here) [190-A3-003]”, the “binding affinity of derivatives of 190-A3-001” value is given as “does not have an influence on the binding affinity”.

The data set is the same for the next values; noted with them: reference 191-D5-001.
As to “CGGGCGAGGUUAGGGCUAGAAGUCGGUCGACCG (Made as D-RNA aptamer and L-RNA Spiegelmer, tested form not given here, further chemistry not given here) [191-D5-004]”, the “binding affinity in competitive pull-down binding assay vs. 191-D5-001” value is “reduced binding affinity”.

The same data set, now with this note: reference 191-D5-007.
Take “GGCGGGUUAGGGCUAGAAGUCGGCGCC (chemistry not fully specified) [191-D5-024]”: the “binding affinity in competitive pull-down binding assay vs. 191-D5-007” value was “reduced binding affinity”.
With “CGGCGGGUUAGGGCUAGAAGUCGGCGCCG (chemistry not fully specified) [191-D5-024-29a]”, the “binding affinity in competitive pull-down binding assay vs. 191-D5-007” value was “identical binding affinity to SDF-1 as 191-D5-007”.
With “GGGCGGGUUAGGGCUAGAAGUCGGCGCCC (chemistry not fully specified) [191-D5-024-29b]”, the “binding affinity in competitive pull-down binding assay vs. 191-D5-007” value was “identical binding affinity to SDF-1 as 191-D5-007”.

The data set is the same for the next values; noted with them: reference 193-G2-001.
Turning to “GCGUGGUGUGAUCUAGAUGUAAAGGCUGAUCCUAGUCAGGUACGC (chemistry not fully specified) [193-H3-002]”, the “binding to human SDF-1 in comparison to 193-G2-001” value (“binding … to 193-G2-001” for short) is on record as “reduced binding”.
For “GCAUGGUGUGAUCUAGAUGUAGUGGCUGAUCCUAGUCAGGUGCCC (chemistry not fully specified) [193-A1-002]”, the “binding … to 193-G2-001” value is “reduced binding; also recorded: weaker binding affinities”.
As to “GUGGUGUGAUCUAGAUGUAGUGGCUGUUCCUAGUCAGGUAUGC (chemistry not fully specified) [193-E3-002]”, the “binding … to 193-G2-001” value is “reduced binding”.
With “GCGUGGUGUGAUCUAGAUGUAAUGGCUGAUCCUAGUCAGGGACGC (chemistry not fully specified) [193-D3-002]”, the “binding … to 193-G2-001” value is listed as “reduced binding; also recorded: weaker binding affinities”.

The data set is the same for the next values; noted with them: vs. 192-A10-001 and 192-A10-008.
On to “GGCCAAAGCAACAUGUCAAUGAAAGGUAGCGGCC (aptamer; chemistry not given here) [192-A10-021]”, for which the “binding affinity of derivatives of 192-A10-001 in competitive pull-down binding assay” value is “weaker, much weaker or very much weaker binding affinity”.
On to “CUGUGAAAGCAACAUGUCAAUGAAAGGUAGCCGCAG (aptamer; Made as D-RNA aptamer and L-RNA Spiegelmer, tested form not given here, further chemistry not given here) [192-A10-002]”, for which the “binding affinity of derivatives of 192-A10-001 in competitive pull-down binding assay” value was “without reduction of binding affinity”.
As for “GCCCAAAGCAACAUGUCAAUGAAAGGUAGCGGGC (aptamer; chemistry not given here) [192-A10-022]”, the “binding affinity of derivatives of 192-A10-001 in competitive pull-down binding assay” value is reported as “weaker, much weaker or very much weaker binding affinity”.
In the case of “GGGCAAAGCAACAUGUCAAUGAAAGGUAGCGCCC (aptamer; chemistry not given here) [192-A10-020]”, the “binding affinity of derivatives of 192-A10-001 in competitive pull-down binding assay” value was “weaker, much weaker or very much weaker binding affinity”.
In the case of “GCGGAAAGCAACAUGUCAAUGAAAGGUAGCCCGC (aptamer; chemistry not given here) [192-A10-014]”, the “binding affinity of derivatives of 192-A10-001 in competitive pull-down binding assay” value is listed as “weaker, much weaker or very much weaker binding affinity”.
For “GUGAAAGCAACAUGUCAAUGAAAGGUAGCCGC (chemistry not given here) [192-A10-004]”, the “binding affinity of derivatives of 192-A10-001 in competitive pull-down binding assay” value was “reduced binding affinity”.
In the case of “UGAAAGCAACAUGUCAAUGAAAGGUAGCCG (chemistry not fully specified) [192-A10-005]”, the “binding affinity of derivatives of 192-A10-001 in competitive pull-down binding assay” value is on record as “reduced binding affinity”.

Still in this data set, the particulars now being: vs. 193-G2-001 and 193-G2-012.
Take “UGGUGUGAUCUAGAUGUAGUGGCUGAUCCUAGUCAGGUA (Made as D-RNA aptamer and L-RNA Spiegelmer, tested form not given here, further chemistry not given here) [193-C2-005]”: the “binding affinity of derivatives of 193-G2-001 and 193-C2-001 in competitive pull-down binding assay” value is “reduced binding affinity”.
Regarding “GUGUGAUCUAGAUGUAGUGGCUGAUCCUAGUCAGG (Listed both as L-RNA Spiegelmer and D-RNA aptamer, further chemistry not given here) [193-C2-007]”, the “binding affinity of derivatives of 193-G2-001 and 193-C2-001 in competitive pull-down binding assay” value was “reduced binding affinity”.
Turning to “GGCCGUGUGAUCUAGAUGUAUUGGCUGAUCCUAGUCAGGGGCC (chemistry not fully specified) [193-G2-016]”, the “binding affinity of derivatives of 193-G2-001 and 193-C2-001 in competitive pull-down binding assay” value is “reduced binding affinity”.
Consider “GCGCGGUGUGAUCUAGAUGUAUUGGCUGAUCCUAGUCAGGCGCGC (chemistry not fully specified) [193-G2-013]”, for which the “binding affinity of derivatives of 193-G2-001 and 193-C2-001 in competitive pull-down binding assay” value is listed as “reduced binding affinity”.
Regarding “GUGGUGUGAUCUAGAUGUAGUGGCUGAUCCUAGUCAGGUAC (chemistry not fully specified) [193-C2-004]”, the “binding affinity of derivatives of 193-G2-001 and 193-C2-001 in competitive pull-down binding assay” value was “reduced binding affinity”.

Staying with this data set, now noted: vs. 197-B2 and 191-D5-007.
With “GCGGGGGUUAGGGCUAGAAGUCGGCCUGC (chemistry not fully specified) [197-B2-005]”, the “binding affinity of truncated derivatives of 197-B2” value was “without loss of binding affinity”.
